Columns and labels:
hESC-atrial CMs = experiment: Action potential recording (amphotericin-B-perforated patch-clamp) in hESC-atrial CMs; assay type: cell-based, human; conditions: for reversibility of AP changes: washout
Method: (§1) Spin EBs resulting from control and RA-treated differentiations were dissociated at day 17 to single cells using TrypLE™ Select (Life Technologies) and plated on gelatin-coated coverslips. Electrophysiological measurements were performed 10–14 days after dissociation from intrinsically quiescent single GFP^+ CMs that were able to contract upon field stimulation.
(§2) APs and membrane currents from hESC-CMs were recorded with the amphotericin-B-perforated patch-clamp technique at 36 ± 0.2°C using an Axopatch 200B amplifier (Molecular Devices, Sunnyvale, CA, USA). Cells were superfused with Tyrode's solution containing (in mmol/l) NaCl 140, KCl 5.4, CaCl2 1.8, MgCl2 1.0, glucose 5.5, and HEPES 5.0; pH was adjusted to 7.4 with NaOH. Pipettes (borosilicate glass; resistance 2–3 MΩ) were heat polished and filled with solution containing (in mmol/l) K-gluconate 125, KCl 20, NaCl 5, amphotericin-B 0.22 and HEPES 10; pH was adjusted to 7.2 with KOH. AP measurements were low-pass-filtered (cutoff frequency 10 kHz) and digitized at 40 kHz; membrane currents were measured at 1 and 4 kHz, respectively. Capacitance and series resistance were compensated by ≥ 80%, and APs were corrected for the calculated liquid junction potential (Barry & Lynch, [1991]). Voltage control, data acquisition and analysis were accomplished using custom software. Cell membrane capacitance (Cm) was estimated by dividing the time constant of the decay of the capacitive transient in response to 5 mV hyperpolarizing voltage clamp steps from −40 mV by the series resistance.
(§3) APs were elicited at 0.5 to 4 Hz by 3 ms, ∼1.2× threshold current pulses through the patch pipette. APs were characterized, as depicted in Fig2A, by resting membrane potential (RMP), maximum upstroke velocity (dV/dtmax), maximum AP amplitude (APAmax), AP plateau amplitude (APAplat, defined as the potential difference between RMP and potential at 20 ms after the upstroke), and the duration at 20, 50 and 90% repolarization (APD20, APD50, and APD90, respectively). Parameter values obtained from 10 consecutive APs were averaged. […]
(§4) (1:2000, Sigma) was performed in TBS-0.05% Tween 20 containing 2% nonfat milk for 1 hour at room temperature. The corresponding secondary antibody conjugated to horseradish peroxidase (HRP) (1:2000; anti-mouse-HRP (#7076), Cell Signaling) was incubated for 1 h at room temperature in 2% nonfat milk. Blots were developed on X-ray films by using a chemiluminescent detection system (ECL; GE Life Science, […]
(§5) The effects of drugs were tested in paired measurements 5 minutes after the onset of bath application. 4-AP was prepared as a 50 mmol/L stock solution in Tyrode’s solution, and pH adjusted to 7.4, with the addition of HCl. CCh, a muscarinic receptor agonist, was prepared as a 10 mmol/L stock solution in Tyrode’s solution. Nifedipine was prepared as a 10 mmol/L stock solution in DMSO and stored at 4 °C. Stock solutions for the other compounds were prepared in DMSO: Vernakalant (30 mmol/L), XEN- D0101 (3 mmol/L), XEN-R0703 (2 mmol/L) and […]. All stock solutions were diluted appropriately before use.
(§6) Recombinant ion channel pharmacology
(§7) Studies were conducted at room temperature using the whole-cell patch-clamp technique. HEK293 cells expressing Kir3.1/3.4, Kir2.1, and CHO cells expressing Nav1.2, Cav1.2 or hERG were used.

hESC-ventricular CMs = experiment: Action potential recording (amphotericin-B-perforated patch-clamp) in hESC-ventricular CMs; assay type: cell-based, human; conditions: 1 Hz; for dV/dtmax / APAmax / APD20 / APAplat / APD50 / APD90: hESC-VM, n=5, mean±SEM
Method: as §1, §2, §3, §4, §5, §6, §7

[1] = hESC-AM, CCh 10 μmol/l, 1 Hz, n=4, mean±SEM, Table S9
[2] = hESC-AM, CCh 10 μmol/l, 1 Hz, n=5, mean±SEM, Table S5
[3] = hESC-AM, vernakalant 30 μmol/l, 1 Hz, n=5, mean±SEM, Table S6
[4] = vernakalant 30 μmol/l, 1 Hz, vs pre-drug
[5] = vernakalant 30 μmol/l, Table S6
[6] = hESC-AM, 4-AP 50 μmol/l, 1 Hz, n=5, mean±SEM, Table S5
[7] = XEN-D0101 3 μmol/l, 1 Hz, vs pre-drug
[8] = hESC-AM, XEN-D0101 3 μmol/l, 1 Hz, n=5, mean±SEM, Table S7

SMILES: C[N+](C)(C)CCOC(N)=O [CCh, carbachol]
- APAmax (hESC-atrial CMs; [1]): 88.9±1.4 mV
- APAplat (hESC-atrial CMs; [1]): 72.4±3.1 mV
- APD20 (hESC-atrial CMs; [1]): 23.9 ± 4.6 ms
- APD50 (hESC-atrial CMs; [1]): 68.1 ± 7.7 ms
- APD90 (hESC-atrial CMs; [1]): 141.2 ± 12.4 ms
- dV/dtmax (hESC-atrial CMs; [1]): 40.0±5.2 V/s
- APAmax (hESC-atrial CMs; [2]): 89.1±1.1 mV
- APAplat (hESC-atrial CMs; [2]): 72.6±2.3 mV
- APD20 (hESC-atrial CMs; [2]): 25.4 ± 3.8 ms
- APD50 (hESC-atrial CMs; [2]): 67 ± 6 ms
- dV/dtmax (hESC-ventricular CMs; CCh 10 μmol/l): 129.9±54 V/s
- APAmax (hESC-ventricular CMs; CCh 10 μmol/l, Table S5): 104.4±9.1 mV
- APD20 (hESC-ventricular CMs; CCh 10 μmol/l, Table S5): 112.9 ± 18.0 ms
- APAmax (hESC-ventricular CMs; CCh 10 μmol/l, Table S9): 110.5±7.8 mV
- APAplat (hESC-ventricular CMs; CCh 10 μmol/l, Table S9): 109.6±7.5 mV
- APD20 (hESC-ventricular CMs; CCh 10 μmol/l, Table S9): 122.9 ± 17.5 ms
- APD50 (hESC-ventricular CMs; CCh 10 μmol/l, Table S9): 181.2 ± 27.6 ms
- APD90 (hESC-ventricular CMs; CCh 10 μmol/l, Table S9): 230.6 ± 25.7 ms
- dV/dtmax (hESC-ventricular CMs; CCh 10 μmol/l, Table S9): 154.8±58.3 V/s

SMILES: COc1ccc(CCO[C@@H]2CCCC[C@H]2N2CC[C@@H](O)C2)cc1OC [vernakalant]
- APAmax (hESC-atrial CMs; [3]): 80.3±2.2 mV
- APAplat (hESC-atrial CMs; [3]): 73.6±4.9 mV
- APD20 (hESC-atrial CMs; [3]): 29.7 ± 4.0 ms
- APD50 (hESC-atrial CMs; [3]): 65.4 ± 7.7 ms
- APD90 (hESC-atrial CMs; [3]): 177.2 ± 08.2 ms
- RMP (hESC-atrial CMs; [3]): -74.2±2.5 mV
- dV/dtmax (hESC-atrial CMs; [3]): 40.4±3.8 V/s
- increase of APAmax (hESC-atrial CMs; [4]): > 2.5 mV
- increase of APAplat (hESC-atrial CMs; [4]): > 20%
- prolongation of APD20 (hESC-atrial CMs; [4]): > 7.5 ms
- prolongation of APD50 (hESC-atrial CMs; [4]): > 15 ms
- prolongation of APD90 (hESC-atrial CMs; [4]): > 22 ms
- reversibility of AP changes (hESC-atrial CMs; vernakalant 30 μmol/l): nearly reversible upon washout
- APAmax (hESC-ventricular CMs; [5]): 104±2.2 mV
- APAplat (hESC-ventricular CMs; [5]): 101.3±2.8 mV
- APD20 (hESC-ventricular CMs; [5]): 68.6 ± 06.8 ms
- APD90 (hESC-ventricular CMs; [5]): 180.0 ± 17.7 ms
- dV/dtmax (hESC-ventricular CMs; [5]): 58.3±6.1 V/s
- effect on AP parameters (hESC-ventricular CMs; vernakalant 30 μmol/l): reduced dV/dtmax but without affecting other AP parameters

SMILES: Nc1ccncc1 [4-AP, 4-aminopyridine]
- APAmax (hESC-atrial CMs; [6]): 94.6±3.0 mV
- APAplat (hESC-atrial CMs; [6]): 86.4±6.5 mV
- APD20 (hESC-atrial CMs; [6]): 41.6 ± 8.1 ms
- APD50 (hESC-atrial CMs; [6]): 72 ± 13 ms
- APAmax (hESC-ventricular CMs; 4-AP 50 μmol/l, Table S5): 99.0±4.0 mV
- APAplat (hESC-ventricular CMs; 4-AP 50 μmol/l, Table S5): 99.8±5.8 mV
- APD20 (hESC-ventricular CMs; 4-AP 50 μmol/l, Table S5): 83.1 ± 15.1 ms
- dV/dtmax (hESC-ventricular CMs; 4-AP 50 μmol/l, Table S5): 49.9±11.1 V/s

SMILES: O=C(NCCO)C1CCCN(c2nc(NCc3ccccn3)c3c(-c4ccccc4)csc3n2)C1 (stereo not shown) [XEN-D0101]
- change of APA (hESC-atrial CMs; [7]): > 10 mV
- change of dV/dtmax (hESC-atrial CMs; [7]): > 8 V/s
- elevation of APAplat (hESC-atrial CMs; [7]): > 26 mV
- prolongation of APD20 (hESC-atrial CMs; [7]): > 30 ms
- prolongation of APD50 (hESC-atrial CMs; [7]): > 35 ms
- prolongation of APD90 (hESC-atrial CMs; [7]): > 23 ms
- reversibility of AP changes (hESC-atrial CMs; XEN-D0101 3 μmol/l): reversible upon washout
- APAmax (hESC-atrial CMs; [8]): 98.9±5.8 mV
- APAplat (hESC-atrial CMs; [8]): 86.8±7.4 mV
- APD20 (hESC-atrial CMs; [8]): 55.7 ± 16.2 ms
- APD50 (hESC-atrial CMs; [8]): 91.3 ± 22.6 ms
- APD90 (hESC-atrial CMs; [8]): 156.2 ± 22.8 ms
- effect on AP parameters (hESC-ventricular CMs; XEN-D0101 3 μmol/l): did not s ignificantly alter any AP parameter
- APAmax (hESC-ventricular CMs; XEN-D0101 3 μmol/l, Table S7): 105.3±5.8 mV
- APAplat (hESC-ventricular CMs; XEN-D0101 3 μmol/l, Table S7): 103.7±6.5 mV
- APD20 (hESC-ventricular CMs; XEN-D0101 3 μmol/l, Table S7): 101.3 ± 14.0 ms
- APD50 (hESC-ventricular CMs; XEN-D0101 3 μmol/l, Table S7): 158.4 ± 18.0 ms
- APD90 (hESC-ventricular CMs; XEN-D0101 3 μmol/l, Table S7): 237.4 ± 21.9 ms
